# Experimental data from patent publication US5166204A, “Isoindole derivatives and salts thereof and antitumor agent comprising the same” (Toyama Chemical Co., Ltd., priority 1989, dated 1992).
# System: HeLa S-3 cells
# Experiment: HeLa S-3 cell growth inhibition test
# Assay type: cell-based
# Details: Homo sapiens, 96 h, read-out: minimum growth inhibition concentration (MIC)
# Procedure: (a) HeLa S-3 Cell Growth Inhibition Test
# A test compound was appropriately diluted with a liquid medium (a minimum essential medium containing a 10% fecal calf serum). The resulting liquid was poured into each well of a 96-well micro titer plate, in an amount of 0.1 ml/well. Then, HeLa S-3 cells were diluted with the same liquid medium so that the cell concentration became 2×10^4 cells/ml, and the resulting liquid was poured into each well of the above plate in an amount of 0.1 ml/well. The resulting plate was allowed to stand in a CO2 gas incubator of 37° C. for 4 days, to effect incubation. After the incubation, the supernatant liquid in each well was removed and fixation by ethanol was effected for 10 minutes. The fixed cells were tinted with a Giemsa's staining solution to determine the minimum growth inhibition concentration (MIC) of test compound for HeLa S-3 cells.
row,Structure (SMILES),MIC
1,Cc1cc2c(c3c1[nH]c1ccc(OC(=O)N4CCCCC4)cc13)C(=O)N(CCN(C)C)C2=O [compound 44],0.8 µg/mL
2,Cc1cc2c(c3c1[nH]c1ccc(OC(=O)N4CCOCC4)cc13)C(=O)N(CCN(C)C)C2=O [compound 50],3.13 µg/mL
3,Cc1cc2c(c3c1[nH]c1ccc(OC(=O)N4CCC(N5CCCCC5)CC4)cc13)C(=O)N(CCN(C)C)C2=O [compound 55],2.5 µg/mL
4,Cc1c2c(c3c([nH]c4ccc(OC(=O)N5CCC(N6CCCCC6)CC5)cc43)c1C)C(=O)N(CCN(C)C)C2=O [compound 75],0.08 µg/mL

# Same assay, conditions: Homo sapiens, 96 h; HeLa S-3 cells, 37° C., 4 days, Giemsa's staining; read-out: minimum growth inhibition concentration (MIC)
row,Structure (SMILES),MIC
1,Cc1c2c(c3c([nH]c4ccccc43)c1C)C(=O)N(CCN(C)C)C2=O [compound 5],0.125 µg/mL
2,CN(C)CCN1C(=O)c2cc(-c3ccccc3)c3[nH]c4ccccc4c3c2C1=O [compound 7],0.8 µg/mL
3,Cc1ccc2[nH]c3ccc4c(c3c2c1)C(=O)N(CCN(C)C)C4=O [compound 12],3.13 µg/mL
4,COc1ccc2c(c1)[nH]c1ccc3c(c12)C(=O)N(CCN(C)C)C3=O [compound 14],1.56 µg/mL
5,CCn1c2ccc(OC)cc2c2c3c(ccc21)C(=O)N(CCN(C)C)C3=O [compound 20],1.56 µg/mL
6,Cc1cc2[nH]c3ccc(O)cc3c2c2c1C(=O)N(CCN(C)C)C2=O [compound 25],0.04 µg/mL
7,CCn1c2ccc(O)cc2c2c3c(ccc21)C(=O)N(CCN(C)C)C3=O [compound 29],3.13 µg/mL
8,COc1ccc2[nH]c3ccc4c(c3c2c1)C(=O)N(CCN1CCN(C)CC1)C4=O [compound 34],3.13 µg/mL
9,COc1ccc2[nH]c3cc(OC)c4c(c3c2c1)C(=O)N(CCN(C)C)C4=O [compound 36],0.8 µg/mL
10,COc1cc2c(c3c1[nH]c1ccc(OCc4ccccc4)cc13)C(=O)N(CCN(C)C)C2=O [compound 37],0.2 µg/mL
11,CN(C)CCN1C(=O)c2cc(O)c3[nH]c4ccc(O)cc4c3c2C1=O [compound 41],0.8 µg/mL
12,CC(=O)Oc1ccc2[nH]c3c(C)cc4c(c3c2c1)C(=O)N(CCN(C)C)C4=O [compound 45],0.16 µg/mL
13,Cc1cc(O)cc2c1[nH]c1ccc3c(c12)C(=O)N(CCN(C)C)C3=O [compound 46],3.13 µg/mL
14,Cc1cc2c(c3c1sc1ccccc13)C(=O)N(CCN(C)C)C2=O [compound 47],0.2 µg/mL
15,CCCc1cc2c(c3c1[nH]c1ccc(O)cc13)C(=O)N(CCN(C)C)C2=O [compound 51],0.2 µg/mL
16,CC(C)c1cc2c(c3c1[nH]c1ccc(O)cc13)C(=O)N(CCN(C)C)C2=O [compound 52],0.4 µg/mL
17,COCc1cc2c(c3c1[nH]c1ccc(O)cc13)C(=O)N(CCN(C)C)C2=O [compound 57],1 µg/mL
18,CNCCN1C(=O)c2cc(C)c3[nH]c4ccc(OC)cc4c3c2C1=O [compound 64],0.63 µg/mL
19,CN(C)CCN1C(=O)c2ccc3sc4ccccc4c3c2C1=O [compound 66],2.5 µg/mL
20,Cc1cc2c(c3c1[nH]c1ccc(O)cc13)C(=O)N(CCN)C2=O [compound 68],0.4 µg/mL
21,CN(C)CCN1C(=O)c2cc(C3CCCC3)c3[nH]c4ccc(O)cc4c3c2C1=O [compound 72],0.16 µg/mL
22,Cc1cc2c(c3c1[nH]c1ccc(O)cc13)C(=O)N(CCNC(C)C)C2=O [compound 76],0.16 µg/mL
23,COc1ccc2[nH]c3c(-c4ccc(F)cc4F)cc4c(c3c2c1)C(=O)N(CCN(C)C)C4=O [compound 79],1.6 µg/mL
24,CCOc1cc2c(c3c1[nH]c1ccc(O)cc13)C(=O)N(CCN(C)C)C2=O [compound 80],0.08 µg/mL
25,Cc1cc2c(c3c1[nH]c1ccc(OC(=O)c4ccncc4)cc13)C(=O)N(CCN(C)C)C2=O [compound 83],0.16 µg/mL
26,COc1ccc(Oc2cc3c(c4c2[nH]c2ccc(O)cc24)C(=O)N(CCN(C)C)C3=O)cc1 [compound 85],0.08 µg/mL
27,CN(C)CCN1C(=O)c2cc(Oc3ccc(O)cc3)c3[nH]c4ccc(O)cc4c3c2C1=O [compound 86],0.16 µg/mL
28,CCN(CC)CCN1C(=O)c2cc(Oc3ccccc3)c3[nH]c4ccc(O)cc4c3c2C1=O [compound 89],0.16 µg/mL

# The remaining lines, values ahead:
row,MIC,Structure (SMILES)
1,6.25 µg/mL,Cc1cc2c(c3c1[nH]c1ccc(O)cc13)C(=O)N(CC[N+](C)(C)C)C2=O [compound 94]
2,6.25 µg/mL,CN(C)CCN1C(=O)c2cc3[nH]c4cccc(F)c4c3cc2C1=O [compound 96]
3,5 µg/mL,COc1ccc2[nH]c3c(C)cc4c(c3c2c1)C(=O)N(CCN1CCOCC1)C4=O [compound 87]
4,3.2 µg/mL,COc1cc2c(cc1Br)[nH]c1c(CN(C)C)cc3c(c12)C(=O)N(CCN(C)C)C3=O [compound 93]
5,3.13 µg/mL,CN(C)CCN1C(=O)c2ccc3[nH]c4cc(Cl)ccc4c3c2C1=O [compound 8]
6,3.13 µg/mL,CN(C)CCN1C(=O)c2ccc3[nH]c4ccc(F)cc4c3c2C1=O [compound 11]
7,3.13 µg/mL,COc1cccc2c1[nH]c1ccc3c(c12)C(=O)N(CCN(C)C)C3=O [compound 13]
8,3.13 µg/mL,COc1ccc2c(c1)c1c3c(ccc1n2C(C)=O)C(=O)N(CCN(C)C)C3=O [compound 21]
9,3.13 µg/mL,O=C1c2ccc3[nH]c4ccc(O)cc4c3c2C(=O)N1CCN1CCCCC1 [compound 33]
10,3.13 µg/mL,Cc1c2c(cc3c1[nH]c1ccccc13)C(=O)N(CCN(C)C)C2=O [compound 97]
11,2.5 µg/mL,Cc1cc2c(c3c1oc1ccccc13)C(=O)N(CCN(C)C)C2=O [compound 43]
12,2.5 µg/mL,Cc1cc2c(c3c1S(=O)(=O)c1ccccc1-3)C(=O)N(CCN(C)C)C2=O [compound 48]
13,2.5 µg/mL,CN(C)CCN1C(=O)c2c(-c3ccncc3)cc3[nH]c4ccc(O)cc4c3c2C1=O [compound 84]
14,2.5 µg/mL,Cc1cc2c(c3c1[nH]c1ccc(O)cc13)C(=O)N(CCN1CCOCC1)C2=O [compound 88]
15,2.5 µg/mL,Cc1c2c(c(C)c3c1[nH]c1ccc(O)cc13)C(=O)N(CCN(C)C)C2=O [compound 100]
16,2 µg/mL,CN(C)CCN1C(=O)c2c(O)cc3[nH]c4ccc(O)cc4c3c2C1=O [compound 35]
17,2 µg/mL,CN(C)CCN1C(=O)c2cc(C(F)(F)F)c3[nH]c4ccc(O)cc4c3c2C1=O [compound 67]
18,1.56 µg/mL,Cc1cc2c(c3c1[nH]c1ccc(O)cc13)C(=O)N(CCN1CCN(C)CC1)C2=O [compound 90]
19,1.56 µg/mL,CNC(=O)n1c2ccc(O)cc2c2c3c(cc(C)c21)C(=O)N(CCN(C)C)C3=O [compound 95]
20,1.25 µg/mL,COc1ccc2[nH]c3c(C4CCC4)cc4c(c3c2c1)C(=O)N(CCN(C)C)C4=O [compound 58]
21,1.25 µg/mL,CN(C)CCN1C(=O)c2cc(C3CCCCC3)c3[nH]c4ccc(O)cc4c3c2C1=O [compound 63]
22,1.25 µg/mL,Cc1cc2c(c3c1[nH]c1ccc(O)cc13)C(=O)N(CCN(CCO)CCO)C2=O [compound 91]

row,MIC,Structure (SMILES)
1,0.8 µg/mL,Cc1cc2c(c3c4ccccc4n(C)c13)C(=O)N(CCN(C)C)C2=O [compound 6]
2,0.8 µg/mL,CN(C)CCN1C(=O)c2ccc3c(c2C1=O)c1cc(Cl)ccc1n3C [compound 10]
3,0.8 µg/mL,COc1ccc2c(c1)[nH]c1c(C)cc3c(c12)C(=O)N(CCN(C)C)C3=O [compound 18]
4,0.8 µg/mL,Cc1cc2c(c3c1[nH]c1ccc(O)cc13)C(=O)N(CCN(C(C)C)C(C)C)C2=O [compound 53]
5,0.8 µg/mL,CN(C)CCN1C(=O)c2cc(C3(C)CC3)c3[nH]c4ccc(O)cc4c3c2C1=O [compound 73]
6,0.8 µg/mL,Cc1c2c(c(C)c3c1[nH]c1ccccc13)C(=O)N(CCN(C)C)C2=O [compound 98]
7,0.8 µg/mL,COc1ccc2[nH]c3c(C)c4c(c(C)c3c2c1)C(=O)N(CCN(C)C)C4=O [compound 99]
8,0.63 µg/mL,COc1ccc2[nH]c3c(C)cc4c(c3c2c1)C(=O)N(CCN)C4=O [compound 65]
9,0.63 µg/mL,CSc1cc2c(c3c1[nH]c1ccc(O)cc13)C(=O)N(CCN(C)C)C2=O [compound 77]
10,0.4 µg/mL,COc1ccc2c(c1)c1c3c(ccc1n2C)C(=O)N(CCN(C)C)C3=O [compound 19]
11,0.4 µg/mL,COc1ccc2sc3c(C)cc4c(c3c2c1)C(=O)N(CCN(C)C)C4=O [compound 56]
12,0.4 µg/mL,COc1ccc2[nH]c3c(C)cc4c(c3c2c1)C(=O)N(CCNCCO)C4=O [compound 82]
13,0.32 µg/mL,C=Cc1cc2c(c3c1[nH]c1ccc(OC)cc13)C(=O)N(CCN(C)C)C2=O [compound 92]
14,0.31 µg/mL,CN(C)CCN1C(=O)c2cc(C(C)(C)C)c3[nH]c4ccc(O)cc4c3c2C1=O [compound 54]
15,0.2 µg/mL,CCc1cc2[nH]c3ccccc3c2c2c1C(=O)N(CCN(C)C)C2=O [compound 4]
16,0.2 µg/mL,COc1ccc2[nH]c3c(C)cc4c(c3c2c1)C(=O)N(CCN(C)C)C4=O [compound 16]
17,0.2 µg/mL,COc1ccc2[nH]c3c(OC)cc4c(c3c2c1)C(=O)N(CCN(C)C)C4=O [compound 40]
18,0.2 µg/mL,CCN(CC)CCN1C(=O)c2cc(C)c3sc4ccc(O)cc4c3c2C1=O [compound 62]
19,0.16 µg/mL,CCN(C)CCN1C(=O)c2cc(C)c3[nH]c4ccc(O)cc4c3c2C1=O [compound 81]
20,0.1 µg/mL,CCCCc1cc2c(c3c1[nH]c1ccc(O)cc13)C(=O)N(CCN(C)C)C2=O [compound 60]
21,0.04 µg/mL,CN(C)CCN1C(=O)c2cc(Oc3ccccc3)c3[nH]c4ccc(O)cc4c3c2C1=O [compound 78]
22,0.016 µg/mL,Cc1c2c(c3c([nH]c4ccc(O)cc43)c1C)C(=O)N(CCN(C)C)C2=O [compound 26]
